Measurements: ChEMBL document CHEMBL1201862, “PubChem BioAssay data set” (2004)
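Step 1: Grow cells in 96-well plates. Step 2: Expose to compound for 48 hours at 5 concentrations. Step 3: Interpolate endpoints linearly; if unreached, use highest concentration. Abbreviation: GI50, concentration required for 50% inhibition of growth.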 The source made the active and inactive calls. No stated cut-off is given here; in the data, active = GI50 up to about 1.1 µM and inactive = higher.

Legend:
Experiment in all cases: growth of human tumour cells (NCI), 48 h
[1] = test system: KM12
[2] = test system: CCRF-CEM
[3] = test system: HOP-92
[4] = test system: HCC 2998
[5] = test system: UACC-62
[6] = test system: SK-MEL-28
[7] = test system: TK-10
[8] = test system: HOP-62
[9] = test system: RXF 393
[10] = test system: A498
[11] = test system: HCT-116
[12] = test system: NCI/ADR-RES
[13] = test system: K562
[14] = test system: OVCAR-8
[15] = test system: SNB-75
[16] = test system: RPMI-8226
[17] = test system: OVCAR-4
[18] = test system: SF-268
[19] = test system: MOLT-4
[20] = test system: SR
[21] = test system: PC-3
[22] = test system: Hs-578T
[23] = test system: M14
[24] = test system: SK-MEL-2
[25] = test system: A549
[26] = test system: OVCAR-3
[27] = test system: MDA-N
[28] = test system: IGROV-1
[29] = test system: SNB-19
[30] = test system: BT-549
[31] = test system: UO-31
[32] = test system: HL-60
[33] = test system: U-251
[34] = test system: SK-MEL-5
[35] = test system: HCT-15
[36] = test system: NCI-H226
[37] = test system: MDA-MB-435
[38] = test system: EKVX
[39] = test system: LOX IMVI
[40] = test system: MDA-MB-231
[41] = test system: OVCAR-5
[42] = test system: UACC-257
[43] = test system: SF-295
[44] = test system: ACHN
[45] = test system: T47D
[46] = test system: COLO 205
[47] = test system: DU-145
[48] = test system: NCI-H460
[49] = test system: CAKI-1
[50] = test system: NCI-H522
[51] = test system: SW-620
[52] = test system: HT-29
[53] = test system: 786-0
[54] = test system: NCI-H23
[55] = test system: MCF7
[56] = test system: Malme-3M

COc1ccc2cc(CNCCCCCCCCNCc3ccc4cc(OC)ccc4c3)ccc2c1
GI50 [1]: 3.92 µM (inactive)
GI50 [2]: 2.54 µM (inactive)
GI50 [3]: 5.32 µM (inactive)
GI50 [4]: 1.85 µM (inactive)
GI50 [5]: 2.01 µM (inactive)
GI50 [6]: 5.78 µM (inactive)
GI50 [7]: 3.37 µM (inactive)
GI50 [8]: 4.97 µM (inactive)
GI50 [9]: 8.07 µM (inactive)
GI50 [10]: 6.38 µM (inactive)
GI50 [11]: 4.42 µM (inactive)
GI50 [12]: 6.65 µM (inactive)
GI50 [13]: 975 nM (active)
GI50 [14]: 6.61 µM (inactive)
GI50 [15]: 3.41 µM (inactive)
GI50 [16]: 1.48 µM (inactive)
GI50 [17]: 6.34 µM (inactive)
GI50 [18]: 4.34 µM (inactive)
GI50 [19]: 2.77 µM (inactive)
GI50 [20]: 1.12 µM (active)
GI50 [21]: 1.45 µM (inactive)
GI50 [22]: 8.77 µM (inactive)
GI50 [23]: 1.86 µM (inactive)
GI50 [24]: 4.71 µM (inactive)
GI50 [25]: 13.5 µM (inactive)
GI50 [26]: 6.61 µM (inactive)
GI50 [27]: 7.74 µM (inactive)
GI50 [28]: 5.21 µM (inactive)
GI50 [29]: 4.1 µM (inactive)
GI50 [30]: 6.67 µM (inactive)
GI50 [31]: 6.78 µM (inactive)
GI50 [32]: 1.58 µM (inactive)
GI50 [33]: 3.66 µM (inactive)
GI50 [34]: 11.7 µM (inactive)
GI50 [35]: 2000 nM
GI50 [36]: 14 µM (inactive)
GI50 [37]: 4.94 µM (inactive)
GI50 [38]: 6.87 µM (inactive)
GI50 [39]: 3.94 µM (inactive)
GI50 [40]: 13.7 µM (inactive)
GI50 [41]: 6.9 µM (inactive)
GI50 [42]: 6.76 µM (inactive)
GI50 [43]: 5.3 µM (inactive)
GI50 [44]: 5.94 µM (inactive)
GI50 [45]: 21.2 µM (inactive)
GI50 [46]: 2.48 µM (inactive)
GI50 [47]: 6.97 µM (inactive)
GI50 [48]: 2.07 µM (inactive)
GI50 [49]: 6.67 µM (inactive)
GI50 [50]: 4.37 µM (inactive)
GI50 [51]: 1.97 µM (inactive)
GI50 [52]: 2 µM (inactive)
GI50 [53]: 5.36 µM (inactive)
GI50 [54]: 13.8 µM (inactive)
GI50 [55]: 4.27 µM (inactive)
GI50 [56]: 6.85 µM (inactive)
